From US20120029190A1, “COMPOUNDS FOR TREATING DISORDERS MEDIATED BY METABOTROPIC GLUTAMATE RECEPTOR 5, AND METHODS OF USE THEREOF” (priority 2009, published 2012)

biological target: T1, human recombinant mGluR5 receptor (Homo sapiens, UniProt P41594); test: mGluR5 in vitro functional assay (aequorin cell line, inhibition of glutamate EC80 response); type: cell-based; conditions: Table 2; aequorin cell line expressing human mGluR5, reference agonist glutamate at EC80; obtained in duplicate; read-out: IC50
T1 construct: expressed in transfected cells; expression induced with doxycycline
In short: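 Doxycycline-induced (600 ng/mL, 18 h) aequorin cells loaded with coelenterazine h ≥4 h at room temperature; compound preincubated 3 min before glutamate at EC80. Luminescence recorded, normalized to digitonin or 20 mM ATP wells; % inhibition of EC80 response fitted by sigmoidal nonlinear regression.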

T1 sequence (P41594 21-1212): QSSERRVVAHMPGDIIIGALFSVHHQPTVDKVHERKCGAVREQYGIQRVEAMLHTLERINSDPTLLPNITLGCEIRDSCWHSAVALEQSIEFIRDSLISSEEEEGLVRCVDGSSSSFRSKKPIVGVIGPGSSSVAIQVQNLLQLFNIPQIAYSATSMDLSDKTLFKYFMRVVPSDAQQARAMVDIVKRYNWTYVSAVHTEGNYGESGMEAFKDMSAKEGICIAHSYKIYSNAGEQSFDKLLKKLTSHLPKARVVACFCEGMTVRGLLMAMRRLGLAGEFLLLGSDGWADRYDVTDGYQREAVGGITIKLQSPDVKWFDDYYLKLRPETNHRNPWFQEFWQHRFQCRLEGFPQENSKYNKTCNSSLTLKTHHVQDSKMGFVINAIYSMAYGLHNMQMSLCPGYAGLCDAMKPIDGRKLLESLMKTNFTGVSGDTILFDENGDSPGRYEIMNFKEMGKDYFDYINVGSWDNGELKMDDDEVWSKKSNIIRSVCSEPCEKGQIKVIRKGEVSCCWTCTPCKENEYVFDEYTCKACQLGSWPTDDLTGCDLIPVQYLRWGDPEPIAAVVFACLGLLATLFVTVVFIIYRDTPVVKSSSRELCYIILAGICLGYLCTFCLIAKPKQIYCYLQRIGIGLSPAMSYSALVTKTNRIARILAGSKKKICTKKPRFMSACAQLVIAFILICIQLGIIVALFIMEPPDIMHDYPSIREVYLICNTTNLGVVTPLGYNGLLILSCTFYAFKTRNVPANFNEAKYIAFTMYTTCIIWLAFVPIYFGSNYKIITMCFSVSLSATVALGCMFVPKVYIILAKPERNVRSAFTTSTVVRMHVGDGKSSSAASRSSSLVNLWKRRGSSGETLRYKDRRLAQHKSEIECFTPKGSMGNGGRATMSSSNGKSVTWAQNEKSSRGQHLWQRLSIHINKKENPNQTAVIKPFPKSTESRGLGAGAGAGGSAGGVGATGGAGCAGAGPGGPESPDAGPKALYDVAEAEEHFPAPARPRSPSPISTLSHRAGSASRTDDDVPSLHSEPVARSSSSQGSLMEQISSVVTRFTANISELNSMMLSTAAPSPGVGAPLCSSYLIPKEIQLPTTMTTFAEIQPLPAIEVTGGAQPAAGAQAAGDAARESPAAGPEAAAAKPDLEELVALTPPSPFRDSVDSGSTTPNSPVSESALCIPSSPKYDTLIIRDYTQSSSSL

SMILES | IC50 [nM]
Fc1cccc(N2CCc3oc(-c4ccccn4)nc3C2)c1 [Compound 116, 5-(3-fluorophenyl)-2-(pyridin-2-yl)-4,5,6,7-tetrahydrooxazolo[4,5-c]pyridine] | < 1000
N#Cc1cc(F)cc(N2CCc3oc(-c4ccncn4)nc3C2)c1 [Compound 118, 3-fluoro-5-(2-(pyrimidin-4-yl)-6,7-dihydrooxazolo[4,5-c]pyridin-5(4H)-yl)benzonitrile] | < 1000
Fc1cccc(N2CCc3oc(-c4ccncn4)nc3C2)c1 [Compound 119, 5-(3-fluorophenyl)-2-(pyrimidin-4-yl)-4,5,6,7-tetrahydrooxazolo[4,5-c]pyridine] | < 10000
Clc1cccc(N2CCc3oc(-c4ccncn4)nc3C2)c1 [Compound 120, 5-(3-chlorophenyl)-2-(pyrimidin-4-yl)-4,5,6,7-tetrahydrooxazolo[4,5-c]pyridine] | < 10000
Cc1cccnc1-c1nc2c(o1)CCN(c1cc(F)cc(C#N)c1)C2 [Compound 121, 3-fluoro-5-(2-(3-methylpyridin-2-yl)-6,7-dihydrooxazolo[4,5-c]pyridin-5(4H)-yl)benzonitrile] | < 10000
Cc1cccnc1-c1nc2c(o1)CCN(c1cccc(F)c1)C2 [Compound 122, 5-(3-fluorophenyl)-2-(3-methylpyridin-2-yl)-4,5,6,7-tetrahydrooxazolo[4,5-c]pyridine] | > 10000
Cc1cccnc1-c1nc2c(o1)CCN(c1cccc(Cl)c1)C2 [Compound 123, 5-(3-chlorophenyl)-2-(3-methylpyridin-2-yl)-4,5,6,7-tetrahydrooxazolo[4,5-c]pyridine] | > 10000
Fc1ccc(-c2nc3c(o2)CCN(c2cccc(F)c2)C3)nc1 [Compound 124, 5-(3-fluorophenyl)-2-(5-fluoropyridin-2-yl)-4,5,6,7-tetrahydrooxazolo[4,5-c]pyridine] | < 1000
Fc1ccc(-c2nc3c(o2)CCN(c2cccc(Cl)c2)C3)nc1 [Compound 125, 5-(3-chlorophenyl)-2-(5-fluoropyridin-2-yl)-4,5,6,7-tetrahydrooxazolo[4,5-c]pyridine] | < 1000
c1ccc(N2CCc3oc(-c4ccccn4)nc3C2)cc1 [Compound 126, 5-phenyl-2-(pyridin-2-yl)-4,5,6,7-tetrahydrooxazolo[4,5-c]pyridine] | < 1000
COc1cccc(N2CCc3oc(-c4ccccn4)nc3C2)c1 [Compound 127, 5-(3-methoxyphenyl)-2-(pyridin-2-yl)-4,5,6,7-tetrahydrooxazolo[4,5-c]pyridine] | < 1000
c1ccc(-c2nc3c(o2)CCN(c2cncnc2)C3)nc1 [Compound 131, 2-(pyridin-2-yl)-5-(pyrimidin-5-yl)-4,5,6,7-tetrahydrooxazolo[4,5-c]pyridine] | < 10000
c1ccc(-c2nc3c(o2)CCN(c2ncccn2)C3)nc1 [Compound 132, 2-(pyridin-2-yl)-5-(pyrimidin-2-yl)-4,5,6,7-tetrahydrooxazolo[4,5-c]pyridine] | < 10000
Fc1ccc(-c2nc3c(o2)CCCN(c2cccc(F)c2)C3)nc1 [Compound 133, 5-(3-fluorophenyl)-2-(5-fluoropyridin-2-yl)-5,6,7,8-tetrahydro-4H-oxazolo[4,5-c]azepine] | < 1000
Fc1ccc(-c2nc3c(o2)CCCN(c2cccc(Cl)c2)C3)nc1 [Compound 134, 5-(3-chlorophenyl)-2-(5-fluoropyridin-2-yl)-5,6,7,8-tetrahydro-4H-oxazolo[4,5-c]azepine] | < 1000
N#Cc1cc(F)cc(N2CCCc3oc(-c4ccc(F)cn4)nc3C2)c1 [Compound 135, 3-fluoro-5-(2-(5-fluoropyridin-2-yl)-7,8-dihydro-4H-oxazolo[4,5-c]azepin-5(6H)-yl)benzonitrile] | < 1000
Fc1cccc(N2CCCc3oc(-c4ccncn4)nc3C2)c1 [Compound 136, 5-(3-fluorophenyl)-2-(pyrimidin-4-yl)-5,6,7,8-tetrahydro-4H-oxazolo[4,5-c]azepine] | < 1000
Clc1cccc(N2CCCc3oc(-c4ccncn4)nc3C2)c1 [Compound 137, 5-(3-chlorophenyl)-2-(pyrimidin-4-yl)-5,6,7,8-tetrahydro-4H-oxazolo[4,5-c]azepine] | < 1000
N#Cc1cc(F)cc(N2CCCc3oc(-c4ccncn4)nc3C2)c1 [Compound 138, 3-fluoro-5-(2-(pyrimidin-4-yl)-7,8-dihydro-4H-oxazolo[4,5-c]azepin-5(6H)-yl)benzonitrile] | < 1000
Fc1cccc(N2CCCc3oc(-c4cnccn4)nc3C2)c1 [Compound 139, 5-(3-fluorophenyl)-2-(pyrazin-2-yl)-5,6,7,8-tetrahydro-4H-oxazolo[4,5-c]azepine] | < 10000
Clc1cccc(N2CCCc3oc(-c4cnccn4)nc3C2)c1 [Compound 140, 5-(3-chlorophenyl)-2-(pyrazin-2-yl)-5,6,7,8-tetrahydro-4H-oxazolo[4,5-c]azepine] | < 10000
N#Cc1cc(F)cc(N2CCCc3oc(-c4cnccn4)nc3C2)c1 [Compound 141, 3-fluoro-5-(2-(pyrazin-2-yl)-7,8-dihydro-4H-oxazolo[4,5-c]azepin-5(6H)-yl)benzonitrile] | < 1000

SMILES | IC50 [nM]
Fc1ccc(N2CCCc3oc(-c4ccccn4)nc3C2)cc1Cl [Compound 144, 5-(3-chloro-4-fluorophenyl)-2-(pyridin-2-yl)-5,6,7,8-tetrahydro-4H-oxazolo[4,5-c]azepine] | < 1000
Cc1nc(-c2nc3c(o2)CCCN(c2cc(F)cc(C#N)c2)C3)cs1 [Compound 145, 3-fluoro-5-(2-(2-methylthiazol-4-yl)-7,8-dihydro-4H-oxazolo[4,5-c]azepin-5(6H)-yl)benzonitrile] | < 1000
Fc1ccc(N2CCc3oc(-c4ccccn4)nc3C2)cc1Cl [Compound 146, 5-(3-chloro-4-fluorophenyl)-2-(pyridin-2-yl)-4,5,6,7-tetrahydrooxazolo[4,5-c]pyridine] | < 1000
N#Cc1cccc(N2CCc3nc(-c4ccccc4)oc3C2)c1 [Compound 148, 3-(2-Phenyl-6,7-dihydrooxazolo[5,4-c]pyridin-5(4H)-yl)benzonitrile] | < 10000
N#Cc1cccc(N2CCc3nc(C4CCCCC4)oc3C2)c1 [Compound 149, 3-(2-Cyclohexyl-6,7-dihydrooxazolo[5,4-c]pyridin-5(4H)-yl)benzonitrile] | < 10000
O=C(CN1CCc2nc(-c3ccccn3)oc2C1)c1ccc(F)cc1 [Compound 150, 1-(4-Fluorophenyl)-2-(2-(pyridin-2-yl)-6,7-dihydrooxazolo[5,4-c]pyridin-5(4H)-yl)ethanone] | > 10000
COC(=O)N1CCc2oc(-c3ccccn3)nc2C1 [Compound 151, Methyl 2-(pyridin-2-yl)-6,7-dihydrooxazolo[4,5-c]pyridine-5(4H)-carboxylate] | > 10000
Fc1ccc(N2CCc3oc(-c4ccccn4)nc3C2)cc1F [Compound 152, 5-(3,4-Difluorophenyl)-2-(pyridin-2-yl)-4,5,6,7-tetrahydrooxazolo[4,5-c]pyridine] | < 1000
Fc1cc(N2CCc3oc(-c4ccccn4)nc3C2)cc(F)c1F [Compound 153, 2-(Pyridin-2-yl)-5-(3,4,5-trifluorophenyl)-4,5,6,7-tetrahydrooxazolo[4,5-c]pyridine] | < 1000
c1ccc(-c2nc3c(o2)CCN(c2cccnc2)C3)nc1 [Compound 154, 2-(Pyridin-2-yl)-5-(pyridin-3-yl)-4,5,6,7-tetrahydrooxazolo[4,5-c]pyridine] | < 1000
N#Cc1cc(F)cc(N2CCc3oc(Cc4ccccc4)nc3C2)c1 [Compound 155, 3-(2-Benzyl-6,7-dihydrooxazolo[4,5-c]pyridin-5(4H)-yl)-5-fluorobenzonitrile] | > 10000
Clc1ccccc1N1CCc2oc(-c3ccccn3)nc2C1 [Compound 156, 5-(2-Chlorophenyl)-2-(pyridin-2-yl)-4,5,6,7-tetrahydrooxazolo[4,5-c]pyridine] | < 1000
Clc1ccc(N2CCc3oc(-c4ccccn4)nc3C2)cc1 [Compound 157, 5-(4-Chlorophenyl)-2-(pyridin-2-yl)-4,5,6,7-tetrahydrooxazolo[4,5-c]pyridine] | < 1000
Fc1cc(Cl)cc(N2CCc3oc(-c4ccccn4)nc3C2)c1 [Compound 158, 5-(3-Chloro-5-fluorophenyl)-2-(pyridin-2-yl)-4,5,6,7-tetrahydrooxazolo[4,5-c]pyridine] | < 1000
Fc1ccc(-c2nc3c(o2)CCN(c2cc(F)cc(Cl)c2)C3)nc1 [Compound 159, 5-(3-Chloro-5-fluorophenyl)-2-(5-fluoropyridin-2-yl)-4,5,6,7-tetrahydrooxazolo[4,5-c]pyridine] | < 1000
N#Cc1cc(F)cc(N2CCc3oc(-c4cncnc4)nc3C2)c1 [Compound 160, 3-Fluoro-5-(2-(pyrimidin-5-yl)-6,7-dihydrooxazolo[4,5-c]pyridin-5(4H)-yl)benzonitrile] | > 10000
Cc1nc(-c2nc3c(o2)CCN(c2ccccn2)C3)cs1 [Compound 161, 2-(2-Methylthiazol-4-yl)-5-(pyridin-2-yl)-4,5,6,7-tetrahydrooxazolo[4,5-c]pyridine] | < 1000
Clc1cc(Cl)cc(N2CCc3oc(-c4ccccn4)nc3C2)c1 [Compound 162, 5-(3,5-Dichlorophenyl)-2-(pyridin-2-yl)-4,5,6,7-tetrahydrooxazolo[4,5-c]pyridine] | < 1000
Cc1nc(N2CCc3oc(-c4ccccn4)nc3C2)cs1 [Compound 163, 5-(2-Methylthiazol-4-yl)-2-(pyridin-2-yl)-4,5,6,7-tetrahydrooxazolo[4,5-c]pyridine] | < 1000
N#Cc1cc(F)cc(-c2nc3c(o2)CCN(c2ccccn2)C3)c1 [Compound 164, 3-Fluoro-5-(5-(pyridin-2-yl)-4,5,6,7-tetrahydrooxazolo[4,5-c]pyridin-2-yl)benzonitrile] | < 10000
N#Cc1cc(F)ccc1N1CCc2oc(-c3ccccn3)nc2C1 [Compound 165, 5-Fluoro-2-(2-(pyridin-2-yl)-6,7-dihydrooxazolo[4,5-c]pyridin-5(4H)-yl)benzonitrile] | < 1000
